Results taken from US20050222270A1, “Prolonged administration of NMDA antagonist drug and safener drug to create improved stable neural homeostasis” (priority 2004, published 2005).

Experiments:
[1] = tested on: patient with intractable post-herpetic trigeminal neuralgia; test: Ketamine infusion with clonidine and MgSO4 in a patient with post-herpetic trigeminal neuralgia; assay type: in vivo, human
Excerpt: A person had suffered for about 1.5 years from intractable post-herpetic trigeminal neuralgia (commonly known as shingles).

[2] = tested on: patients with CRPS-1 (RSD); test: Sustained ketamine infusion (with clonidine/magnesium) in patients with CRPS-1 (RSD) chronic neuropathic pain
Excerpt: One of the coinventors herein (Correll, a physician) was involved in those tests, in Australia, using ketamine “mono-therapy” (i.e., without also administering a safener drug, such as clonidine).
In response, the anesthesiologist began to administer clonidine, a standard and conventional treatment for controlling high blood pressure. […] The anesthesiologist then began researching the scientific, medical, and patent literature on the subject, and soon discovered prior work done by the third inventor (Olney, a neurology researcher who specializes in animal models) on the subject of safener drugs that can reduce or prevent the toxic side effects of NMDA blocker drugs such as ketamine.
A person had suffered for roughly 9 years from intractable chronic pain, diagnosed as CRPS-1 and/or RSD, in their right leg and foot. This pain apparently was related to circulatory problems in their right leg. […] The contents of that article are incorporated herein by reference.
They were treated with […] of MgSO4 (infused in 5% dextrose in water, or D5W) and 0.1 mg clonidine (oral tablet) prior to ketamine. […] A second magnesium infusion was performed at 24 hr.

[3] = tested on: patients with compulsive eating disorders (mainly anorexic); details: 2 to 9 infusions, 10-hour infusion period, 20 mg per hour; cited from earlier work
depressed patients = details: single one-time dosage; cited from earlier work

O=S(=O)([O-])[O-].[Mg+2] [MgSO4, magnesium sulfate]
effect of magnesium coadministered along with ketamine on pain ([1]; Example 3, 2 g MgSO4 prior to and 2 g later in ketamine infusion): synergistic pain-reducing effect

Clc1cccc(Cl)c1N=C1NCCN1 [clonidine]
effect of adding clonidine to ketamine infusion on pain ([2]; patient in ketamine mono-therapy test, clonidine given for rising blood pressure): substantial improvement in their pain reduction

CNC1(c2ccccc2Cl)CCCCC1=O (stereo not drawn) [ketamine]
patients with prolonged remission of compulsive thoughts about food, diet, and weight [3]: Nine of the 15 | effect on depression (depressed patients): transient relief of depression | pain status at last contact ([1]; Example 3, about 12 months after treatment, 48 hours ketamine infusion, clonidine started during first day, 2 x 2 g MgSO4): still largely abated | time patient remained pain-free after ketamine treatment ([2]; Example 1, person, 9-year CRPS-1/RSD in right leg and foot): roughly 18 months | pain status at last contact ([2]; Example 2, about 12 months after treatment): still pain-free | time until CNS side effects (slurring of speech) resolved ([2]; Example 2, ketamine infusion increased to 20 mg/hr): ≤ 24 h | time of ketamine infusion until essentially complete relief from pain ([2]; Example 2, person, ketamine 10-20 mg/hr i.v. with clonidine 0.1 mg every 12 hours and MgSO4): 2 to 3 days
